From patent publication US20240408211A1, “COMPOSITIONS AND METHODS OF AMELIORATING AVERSIVENESS OF AVERSIVE STIMULI BY INHIBITION OF PURINERGIC RECEPTORS” (Monell Chemical Senses Center, priority 2021, published 2024)

How the values were obtained:
[1] = test system: chorda tympani nerve; settings: cited from earlier work
[2] = biological target: T1, P2X2/3 (Homo sapiens, UniProt P56373+Q9UBL9); assay: P2X2/3 stable HEK293 cell lines responding to α,β-meATP (screening assay); format: cell-based; settings: P2X2/3 stable HEK293 lines; FIGS. 8A and 8B
T1 construct: expressed in transfected cells; host or cells: HEK293
T1 sequence (Q9UBL9 1-471): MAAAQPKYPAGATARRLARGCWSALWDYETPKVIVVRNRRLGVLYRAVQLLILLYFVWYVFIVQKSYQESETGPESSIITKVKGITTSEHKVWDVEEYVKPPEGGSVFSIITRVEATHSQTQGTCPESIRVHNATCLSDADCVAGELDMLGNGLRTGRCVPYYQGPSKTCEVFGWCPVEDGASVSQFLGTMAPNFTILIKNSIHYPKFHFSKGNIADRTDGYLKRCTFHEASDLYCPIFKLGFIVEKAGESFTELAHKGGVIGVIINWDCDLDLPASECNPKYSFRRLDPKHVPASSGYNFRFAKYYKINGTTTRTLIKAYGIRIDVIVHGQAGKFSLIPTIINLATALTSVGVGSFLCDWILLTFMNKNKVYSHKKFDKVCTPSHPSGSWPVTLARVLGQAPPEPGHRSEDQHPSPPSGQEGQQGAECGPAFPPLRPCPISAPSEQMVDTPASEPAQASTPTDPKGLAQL
T1 sequence (P56373 1-397): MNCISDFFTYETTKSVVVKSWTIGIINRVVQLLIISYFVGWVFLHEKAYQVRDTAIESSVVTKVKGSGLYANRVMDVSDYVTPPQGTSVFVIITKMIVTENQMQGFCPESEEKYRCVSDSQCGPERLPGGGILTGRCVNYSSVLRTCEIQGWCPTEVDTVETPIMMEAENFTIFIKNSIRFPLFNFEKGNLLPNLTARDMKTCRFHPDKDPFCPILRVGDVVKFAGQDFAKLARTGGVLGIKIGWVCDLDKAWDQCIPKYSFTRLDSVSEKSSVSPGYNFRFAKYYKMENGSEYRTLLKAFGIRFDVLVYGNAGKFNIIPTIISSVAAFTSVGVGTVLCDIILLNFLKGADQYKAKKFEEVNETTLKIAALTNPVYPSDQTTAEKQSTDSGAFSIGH
Experimental: In this study, we built stable cell lines expressing P2X2/3 in HEK293 cells via transfection with either P2X2-Neo or P2X3-Zeo constructs, following which selection was performed using Zeocin, G418. Picked clones were grown out from single cells (cultured continuously in the presence of Zeocin and G418) using cloning rings.
The resulted stable cell lines are used for characterizing putative taste-blockers.

[3] = test system: mice; settings: intraperitoneal administration; cited from earlier work

In the case of COc1cc(C(C)C)c(Oc2cnc(N)nc2N)cc1I [AF-353, 5-[5-iodo-4-methoxy-2-(1-methylethyl)phenoxy]-2,4-pyrimidinediamine], the “chorda tympani nerve responses elicited by orally applied taste stimuli” value ([1]; 1.0 or 1.1 mM flowed over the anterior tongue for 10 min, at 10 and 30 min after application) is given as “eliminated”, the “chorda tympani nerve responses to all tastants” value ([1]; intraperitoneal injection, 6 mg/kg) is given as “abolished” and the “decrease of chorda tympani nerve responses” value ([1]; intraperitoneal, 0.25 mg/kg) is given as roughly 50%. For the same molecule, the “response of the stable cell lines” value [2] was “dose-dependent manner” and the “preference for SC-45647 shown by vehicle-administered mice” value [3] was “eliminated”.
